In US12712052B2, “Method and system to identify natural products from mass spectrometry and genomics data” (priority 2021, dated 2026):
Values after ≈ are worked out from the molar mass of the structure shown. Like-named read-outs stand apart in the source and are kept apart here. Starred links: 1 amine or outer side, 2 acyl side, 3 side chain; linkers in the order of their positions; H or OH if unused. Positions of bridges follow the written chain, without caps; N, C: chain ends. Non-standard residues stand in square brackets, D forms with d. Residues, ends and D or L forms follow the SMILES beside them. *: point of attachment. hTyr(3S-OH,4S-OH,3'-OSO3H) = N[C@H](C(=O)O)[C@H](O)[C@@H](O)c1ccc(O)c(OS(=O)(=O)O)c1; pTerphenylCO(4''-OnC5H11) = CCCCCOc1ccc(-c2ccc(-c3ccc(C(=O)*)cc3)cc2)cc1; Orn(4R-OH,5R-OH) = O=C([C@H](C[C@@H](O)[C@@H](O)N[*:3])N[*:1])[*:2]; hTyr(3S-OH,4S-OH) = N[C@H](C(=O)O)[C@H](O)[C@@H](O)c1ccc(O)cc1; Pro(3S-OH,4S-Me) = C[C@H]1CN[C@H](C(=O)O)[C@H]1O; X1 = CCCCCOc1ccc(-c2cc(-c3ccc(C(=O)*)cc3)no2)cc1; Gln(3R-OH) = NC(=O)C[C@@H](O)[C@H](N)C(=O)O; Hyp = O=C(O)[C@@H]1C[C@@H](O)CN1

Experiments:
C. auris CDC #0385 = assay: MIC against C. auris CDC #0385; type: cell-based, Candida auris; details: for MIC: Candidozyma auris, read-out: minimum inhibitory concentration (MIC)
Protocol: (§1) Direct bioactivity screening experiments of CHM-752 are performed against Candida pathogens (Table 13).

C. glabrata CDC #0321 = assay: MIC against C. glabrata CDC #0321; type: cell-based; details: for MIC: Nakaseomyces glabratus, read-out: minimum inhibitory concentration (MIC)
Protocol: as §1

C. glabrata CDC #0325 = assay: MIC against C. glabrata CDC #0325; type: cell-based; details: for MIC: Nakaseomyces glabratus, read-out: minimum inhibitory concentration (MIC)
Protocol: as §1

C. auris CDC #0381 = assay: MIC against C. auris CDC #0381; type: cell-based, Candida auris; details: for MIC: Candidozyma auris, read-out: minimum inhibitory concentration (MIC)
Protocol: as §1

C. auris CDC #0383 = assay: MIC against C. auris CDC #0383; type: cell-based, Candida auris; details: for MIC: Candidozyma auris, read-out: minimum inhibitory concentration (MIC)
Protocol: as §1

C. albicans ATCC 90028 = assay: MIC against C. albicans ATCC 90028; type: cell-based, Candida albicans; details: for MIC: Candida albicans
Protocol: as §1

C. glabrata CDC #0315 = assay: MIC against C. glabrata CDC #0315; type: cell-based; details: for MIC: Nakaseomyces glabratus, read-out: minimum inhibitory concentration (MIC)
Protocol: as §1

C. auris CDC #0390 = assay: MIC against C. auris CDC #0390; type: cell-based, Candida auris; details: for MIC: Candidozyma auris, read-out: minimum inhibitory concentration (MIC)
Protocol: as §1

C. auris CDC #0384 = assay: MIC against C. auris CDC #0384; type: cell-based, Candida auris; details: for MIC: Candidozyma auris, read-out: minimum inhibitory concentration (MIC)
Protocol: as §1

C. albicans MYA-574 = assay: MIC against C. albicans MYA-574; type: cell-based, Candida albicans; details: for MIC: Candida albicans
Protocol: as §1

C. auris CDC #0389 = assay: MIC against C. auris CDC #0389; type: cell-based, Candida auris; details: for MIC: Candidozyma auris, read-out: minimum inhibitory concentration (MIC)
Protocol: as §1

C. glabrata CDC #0318 = assay: MIC against C. glabrata CDC #0318; type: cell-based; details: for MIC: Nakaseomyces glabratus, read-out: minimum inhibitory concentration (MIC)
Protocol: as §1

C. glabrata ATCC 36583 = assay: MIC against C. glabrata ATCC 36583; type: cell-based; details: for MIC: Nakaseomyces glabratus, ATCC36583, read-out: minimum inhibitory concentration (MIC)
Protocol: as §1

C. auris CDC #0387 = assay: MIC against C. auris CDC #0387; type: cell-based, Candida auris; details: for MIC: Candidozyma auris, read-out: minimum inhibitory concentration (MIC)
Protocol: as §1

[1] = ATCC90028, read-out: minimum inhibitory concentration (MIC)
[2] = ATCC90028, C. albicans ATCC 90028, read-out: minimum inhibitory concentration (MIC)
[3] = MYA574, C. albicans MYA-574, read-out: minimum inhibitory concentration (MIC)

| Structure (SMILES) | MIC (C. auris CDC #0385) [µg/mL] | MIC (C. glabrata CDC #0321) [µg/mL] | MIC (C. glabrata CDC #0325) [µg/mL] | MIC (C. auris CDC #0381) [µg/mL] | MIC (C. auris CDC #0383) [µg/mL] | MIC (C. albicans ATCC 90028; [1]) [µg/mL] | MIC (C. auris CDC #0385; C. auris CDC #0385) [µg/mL] | MIC (C. glabrata CDC #0321; C. glabrata CDC #0321) [µg/mL] | MIC (C. glabrata CDC #0325; C. glabrata CDC #0325) [µg/mL] | MIC (C. auris CDC #0381; C. auris CDC #0381) [µg/mL] | MIC (C. auris CDC #0383; C. auris CDC #0383) [µg/mL] | MIC (C. albicans ATCC 90028; [2]) [µg/mL] | MIC (C. glabrata CDC #0315; C. glabrata CDC #0315) [µg/mL] | MIC (C. auris CDC #0390; C. auris CDC #0390) [µg/mL] | MIC (C. auris CDC #0384; C. auris CDC #0384) [µg/mL] | MIC (C. albicans MYA-574; [3]) [µg/mL] | MIC (C. auris CDC #0389; C. auris CDC #0389) [µg/mL] | MIC (C. glabrata CDC #0318; C. glabrata CDC #0318) [µg/mL] | MIC (C. glabrata ATCC 36583) [µg/mL] | MIC (C. auris CDC #0387; C. auris CDC #0387) [µg/mL] | further results |
| --- | --- | --- | --- | --- | --- | --- | --- | --- | --- | --- | --- | --- | --- | --- | --- | --- | --- | --- | --- | --- | --- |
| C[C@@H]1[C@H](O)[C@@H](C)/C=C/C=C/C=C/C=C/C=C/C=C/C=C/[C@H](O[C@@H]2O[C@H](C)[C@@H](O)[C@H](N)[C@@H]2O)C[C@@H]2O[C@](O)(C[C@@H](O)C[C@@H](O)[C@H](O)CC[C@@H](O)C[C@@H](O)CC(=O)O[C@H]1C)C[C@H](O)[C@H]2C(=O)O [AMP, Amphotericin B] | – | – | – | – | – | – | – | – | – | – | – | – | – | – | – | – | – | – | – | – | minimum inhibitory concentration (MIC) (C. auris CDC #0385; C. auris CDC #0385): 0.5 µg/mL (≈ 0.541 µM); minimum inhibitory concentration (MIC) (C. glabrata CDC #0321; C. glabrata CDC #0321): 0.09 µg/mL (≈ 0.0974 µM); minimum inhibitory concentration (MIC) (C. glabrata CDC #0325; C. glabrata CDC #0325): 0.25 µg/mL (≈ 0.271 µM); minimum inhibitory concentration (MIC) (C. auris CDC #0381; C. auris CDC #0381): 0.13 µg/mL (≈ 0.141 µM); minimum inhibitory concentration (MIC) (C. auris CDC #0383; C. auris CDC #0383): 0.38 µg/mL (≈ 0.411 µM); minimum inhibitory concentration (MIC) (C. albicans ATCC 90028; C. albicans ATCC 90028): 0.13 µg/mL (≈ 0.141 µM); minimum inhibitory concentration (MIC) (C. glabrata CDC #0315; C. glabrata CDC #0315): 0.38 µg/mL (≈ 0.411 µM); minimum inhibitory concentration (MIC) (C. auris CDC #0390; C. auris CDC #0390): 4 µg/mL (≈ 4.33 µM); minimum inhibitory concentration (MIC) (C. auris CDC #0384; C. auris CDC #0384): 0.5 µg/mL (≈ 0.541 µM); minimum inhibitory concentration (MIC) (C. albicans MYA-574; C. albicans MYA-574): 0.13 µg/mL (≈ 0.141 µM); minimum inhibitory concentration (MIC) (C. auris CDC #0389; C. auris CDC #0389): 4 µg/mL (≈ 4.33 µM); minimum inhibitory concentration (MIC) (C. glabrata CDC #0318; C. glabrata CDC #0318): 0.19 µg/mL (≈ 0.206 µM); minimum inhibitory concentration (MIC) (C. glabrata ATCC 36583): 0.13 µg/mL (≈ 0.141 µM); minimum inhibitory concentration (MIC) (C. auris CDC #0387; C. auris CDC #0387): 0.75 µg/mL (≈ 0.812 µM) |
| CCCCCOc1ccc(-c2cc(-c3ccc(C(=O)N[C@H]4C[C@@H](O)[C@@H](O)NC(=O)[C@@H]5[C@@H](O)[C@@H](C)CN5C(=O)[C@H]([C@H](O)CC(N)=O)NC(=O)[C@H]([C@H](O)[C@@H](O)c5ccc(O)c(OS(=O)(=O)O)c5)NC(=O)[C@@H]5C[C@@H](O)CN5C(=O)[C@H]([C@@H](C)O)NC4=O)cc3)no2)cc1 [MF, Micafungin] (X1-[Orn(4R-OH,5R-OH)]T[Hyp][hTyr(3S-OH,4S-OH,3'-OSO3H)][Gln(3R-OH)][Pro(3S-OH,4S-Me)]; lactam 1-C) | 0.5 (≈ 0.394 µM) | 1 (≈ 0.787 µM) | 4 (≈ 3.15 µM) | 0.13 (≈ 0.102 µM) | 1 (≈ 0.787 µM) | 0.02 (≈ 0.0157 µM) | – | – | – | – | – | – | – | – | – | – | – | – | – | – | MIC (C. glabrata CDC #0315): 4 µg/mL (≈ 3.15 µM); MIC (C. auris CDC #0390): 0.25 µg/mL (≈ 0.197 µM); MIC (C. auris CDC #0384): 2 µg/mL (≈ 1.57 µM); MIC (C. albicans MYA-574; MYA574, read-out: minimum inhibitory concentration (MIC)): 0.06 µg/mL (≈ 0.0472 µM); MIC (C. auris CDC #0389): 0.25 µg/mL (≈ 0.197 µM); MIC (C. glabrata CDC #0318): 4 µg/mL (≈ 3.15 µM); MIC (C. auris CDC #0387): 0.5 µg/mL (≈ 0.394 µM) |
| C[C@@H](c1ncncc1F)[C@](O)(Cn1cncn1)c1ccc(F)cc1F [VRC, Voriconazole] | – | – | – | – | – | – | 16 (≈ 45.8 µM) | 2 (≈ 5.73 µM) | 16 (≈ 45.8 µM) | 0.03 (≈ 0.0859 µM) | 4 (≈ 11.5 µM) | 0.01 (≈ 0.0286 µM) | 0.25 (≈ 0.716 µM) | 8 (≈ 22.9 µM) | 1 (≈ 2.86 µM) | 0.25 (≈ 0.716 µM) | 0.4 (≈ 1.15 µM) | 1 (≈ 2.86 µM) | 0.5 (≈ 1.43 µM) | 0.06 (≈ 0.172 µM) | – |
| OC(Cn1cncn1)(Cn1cncn1)c1ccc(F)cc1F [FLC, Fluconazole] | – | – | – | – | – | – | > 256 | 64 (≈ 209 µM) | 128 (≈ 418 µM) | 4 (≈ 13.1 µM) | 128 (≈ 418 µM) | 0.25 (≈ 0.816 µM) | 4 (≈ 13.1 µM) | > 256 | 128 (≈ 418 µM) | 64 (≈ 209 µM) | 256 (≈ 836 µM) | 32 (≈ 104 µM) | 8 (≈ 26.1 µM) | 8 (≈ 26.1 µM) | – |
| CCCCCOc1ccc(-c2ccc(-c3ccc(C(=O)N[C@H]4C[C@@H](O)[C@@H](O)NC(=O)[C@@H]5[C@@H](O)[C@@H](C)CN5C(=O)[C@H]([C@@H](C)O)NC(=O)[C@H]([C@H](O)[C@@H](O)c5ccc(O)cc5)NC(=O)[C@@H]5C[C@@H](O)CN5C(=O)[C@H]([C@@H](C)O)NC4=O)cc3)cc2)cc1 [ANI, Anidulafungin] ({pTerphenylCO(4''-OnC5H11)}-[Orn(4R-OH,5R-OH)]T[Hyp][hTyr(3S-OH,4S-OH)]T[Pro(3S-OH,4S-Me)]; lactam 1-C) | 1 (≈ 0.877 µM) | 2 (≈ 1.75 µM) | 4 (≈ 3.51 µM) | 0.25 (≈ 0.219 µM) | 1 (≈ 0.877 µM) | 0.01 (≈ 0.00877 µM) | – | – | – | – | – | – | – | – | – | – | – | – | – | – | MIC (C. glabrata CDC #0315): 2 µg/mL (≈ 1.75 µM); MIC (C. auris CDC #0390): 1 µg/mL (≈ 0.877 µM); MIC (C. auris CDC #0384): 2 µg/mL (≈ 1.75 µM); MIC (C. auris CDC #0389): 1 µg/mL (≈ 0.877 µM); MIC (C. glabrata CDC #0318): 4 µg/mL (≈ 3.51 µM); MIC (C. auris CDC #0387): 0.5 µg/mL (≈ 0.438 µM) |
| CC[C@H](C)C[C@H](C)CCCCCCCCC(=O)N[C@H]1C[C@@H](O)[C@@H](NCCN)NC(=O)[C@@H]2[C@@H](O)CCN2C(=O)[C@H]([C@H](O)CCN)NC(=O)[C@H]([C@H](O)[C@@H](O)c2ccc(O)cc2)NC(=O)[C@@H]2C[C@@H](O)CN2C(=O)[C@H]([C@@H](C)O)NC1=O [CAS, Caspofungin] | – | – | – | – | – | – | 0.5 (≈ 0.457 µM) | 4 (≈ 3.66 µM) | > 16 | 0.13 (≈ 0.119 µM) | 0.25 (≈ 0.229 µM) | 0.5 (≈ 0.457 µM) | 16 (≈ 14.6 µM) | 0.5 (≈ 0.457 µM) | 16 (≈ 14.6 µM) | 0.5 (≈ 0.457 µM) | 0.5 (≈ 0.457 µM) | 16 (≈ 14.6 µM) | 0.5 (≈ 0.457 µM) | 0.25 (≈ 0.229 µM) | – |
